The test system of series [1] is RPMI 8402 cells. In words: MTT cytotoxicity assay, RPMI 8402. Particulars: continuous exposure for four days. The format is cell-based, human. As to the method: (§1) Each N,N-dimethylamino-substituted macrocycle was also evaluated for cytotoxic activity against a human lymphoblastoma RPMI 8402 and a human epidermoid carcinoma KB3-1 cell line (Table 2). The results from these assays are informative about the relationship of structure to cytotoxic activity among the PyPX macrocyclic G-quadruplex stabilizers. […] An explanation for this observation is not clear at this time. The three-carbon analogs 12 and 22 have nearly equivalent activity at both positions, but these longer-chain analogs are generally lower in activity than the two-carbon analogs. Attachment of the dimethylamino group directly to the phenyl ring (8 and 19) leads to compounds having the greatest cytotoxic potency at their respective points of attachment. […] In general analogs that have an even number (0 or 2) of methylene spacer groups are more cytotoxic than those with an odd number. […] Moving the side-chain away from the phenyl ring and onto an oxazole ring also fails to improve cytotoxic activity.
(§2) Cytotoxicity was determined using the MTT-microtiter plate tetrazolinium assay (MTA). The human lymphoblast RPMI 8402 cell line was provided by Dr. Toshiwo Andoh (Aichi Cancer Center Research Institute, Nagoya, Japan). The KB3-1 cell line was obtained from K.V. Chin (The Cancer Institute of New Jersey, New Brunswick, NJ, USA). The cytotoxicity assay was performed using 96-well microtiter plates. Cells were grown in suspension at 37 °C in 5% CO2 and maintained by regular passage in RPMI medium supplemented with 10% heat inactivated fetal bovine serum, L-glutamine (2 mM), penicillin (100 U/mL), and Streptomycin (0.1 mg/mL). For determination of IC50 values, cells were exposed continuously for four days to varying concentrations of drug, and MTT assays were performed at the end of the fourth day. […] All assays were performed at least twice in six replicate wells.
Background: Tetrazolium assays rely on reduction of a dye to a coloured formazan, in cell work by metabolically active cells.

The test system of series [2] is human telomeric sequence d[T2G3(T2AG3)3A] (hTel) quadruplex DNA. In words: UV melting of hTel quadruplex DNA (G-quadruplex stabilization). The format is binding. Particulars: hTel 5 µM strand, drug 20 µM; for ΔTtran, hTel quadruplex DNA: change in Ttran induced by compound, UV melting at 295 nm, pH 7.5, K+ 150 mM, uncertainty ± 0.5 °C; for Ttran, hTel quadruplex DNA: first-derivative UV melting at 295 nm, 10 mM potassium phosphate pH 7.5, total K+ 150 mM, no drug: 64.6. As to the method: (§3) Each compound was evaluated for its ability to selectively bind and stabilize G-quadruplex DNA in the presence of K^+ ions (150 mM). Salmon testes (ST) DNA was employed as a model of duplex DNA and the human telomeric sequence d[T2G3(T2AG3)3A], denoted as hTel, was used as a model of quadruplex DNA. This sequence has been shown by Patel and co-workers, to exist as an intramolecular (3 + 1) G-quadruplex in which three strands are oriented in one direction and the fourth is oriented in the opposite direction in K^+ solution [35]. The first-derivative forms of the UV melting profiles for ST DNA and hTel DNA were recorded in the absence and presence of the various macrocycles. The ligand-induced changes, if any, in the transition temperature (Ttran) corresponding to the maxima (for quadruplex DNA) or minima (for duplex DNA) of these first-derivative melting profiles are listed in Table 1 for each macrocycle. With the exception of 8 which has a slight (<1 °C) destabilizing effect, none of the other macrocycles alters the thermal stability of ST duplex DNA to any significant extent and any observed changes in Ttran are within the experimental uncertainty. This observation is consistent with little or no duplex DNA binding by these macrocycles. Similar behavior has been observed for other macrocyclic pyridyl polyoxazoles. Temperature-Dependent Spectrophotometry. Temperature-dependent absorption experiments were conducted on an AVIV Model 14DS Spectrophotometer (Aviv Biomedical, Lakewood, NJ, USA) equipped with a thermoelectrically controlled cell holder. Quartz cells with a path length of 1.0 cm were used for all the absorbance studies. Temperature-dependent absorption profiles were acquired at either 260 nm (for ST duplex DNA) or 295 nm (for hTel quadruplex DNA) with a 5 s averaging time. The temperature was raised in 0.5 °C increments, and the samples were allowed to equilibrate for 1 min at each temperature setting. In the quadruplex melting studies, the hTel concentration was 5 µM in strand (120 μM in nucleotide). When present in these quadruplex studies, the drug concentrations were 20 µM. In the duplex melting studies the ST DNA concentrations were 15 µM base pair (30 μM in nucleotide) and, when present, the drug concentrations were 15 µM. The buffer for all the UV melting experiments contained 10 mM potassium phosphate (pH 7.5) and sufficient KCl (132 mM) to bring the total K^+ concentration to 150 mM. Prior to their use in the UV melting experiments, all nucleic acid solutions were preheated at 90 °C for 5 min and slowly cooled to room temperature over a period of 4 hr.

Series [3] relates to Salmon testes (ST) duplex DNA. Put plainly: UV melting of salmon testes duplex DNA. The format is binding. Particulars: for ΔTtran, salmon testes duplex DNA: change in Ttran induced by compound, UV melting at 260 nm, pH 7.5, K+ 150 mM, uncertainty ± 0.5 °C; for ΔTtran, salmon testes duplex DNA / Ttran, salmon testes duplex DNA: ST DNA 15 µM base pair, drug 15 µM; for Ttran, salmon testes duplex DNA: first-derivative UV melting at 260 nm, 10 mM potassium phosphate pH 7.5, total K+ 150 mM, no drug: 86.6. As to the method:
as §3

Series [4] has as its system KB3-1 cells. Put plainly: MTT cytotoxicity assay, KB3-1. The format is cell-based, human. Particulars: continuous exposure for four days, means of at least two determinations ± standard deviation, read-out: IC50, KB3-1 wt. As for the experimental part:
as §1, §2

Series [5] is described as follows: Water-solubility (qualitative). The format is physicochemical. The following applies: qualitative statement, method not given.
Series [6] relates to RPMI 8402 cells. The following applies: range given for analogs 1 and 2 together; ref [21]; read-out: IC50 against RPMI 8402 cells; cited from earlier work. The source says:
(§4) Table 2 Relative cytotoxic activities. IC50 values (μM) ^a. | column: RPMI 8402 || The development of G-quadruplex stabilizers as a potential new class of anticancer agents hinges on the ability to design compounds that stabilize only G-quadruplexes and not other nucleic acid structures such as duplex or triplex DNA [15]. While a diverse array of compounds have been reported to stabilize G-quadruplex DNA [1], most also have some ability to stabilize duplex DNA. The natural product telomestatin for example, is reported to stabilize G-quadruplex DNA with 70:1 selectivity over duplex DNA [16, 17]. In contrast, the synthetic macrocyclic hexaoxazole HXDV (Figure 1) demonst ...

The subject of series [7] is KB3-1 cells. Particulars: range given for analogs 1 and 2 together; ref [21]; read-out: IC50 against KB3-1 cells; cited from earlier work.
Text: as §4, with “KB3-1 wt.” for “RPMI 8402”

[8] abbreviates: means of at least two determinations ± standard deviation.

Like-named read-outs stand apart in the source and are kept apart here.

In general, IC50 refers to the concentration at which inhibition is half-maximal.

`CN(C)CCc1oc2nc1C(=O)NCc1cccc(c1)CNC(=O)c1nc(oc1CCN(C)C)-c1coc(n1)-c1cccc(n1)-c1nc-2co1` [Compound 37, Pyridyl tetraoxazole macrocycle with two 2-(N,N-dimethylamino)ethyl side chains] gave an IC50 in series [1] (setting [8]) of 1500 nM. Besides, in series [2], the “ΔTtran, hTel quadruplex DNA” value worked out at 1.6 °C and the “Ttran, hTel quadruplex DNA” value was found to be 66.2 °C. Besides, in series [3], the “ΔTtran, salmon testes duplex DNA” value is −0.4 °C and the “Ttran, salmon testes duplex DNA” value was determined as 86.2 °C. In addition, the IC50 in series [4] was 400 ± 100 nM.
For the molecule `CN(C)CCc1oc2nc1C(=O)NCc1cccc(c1)CNC(=O)c1coc(n1)-c1coc(n1)-c1cccc(n1)-c1nc-2co1` [Compound 36, Pyridyl tetraoxazole macrocycle with a single 2-(N,N-dimethylamino)ethyl side chain], the IC50 in series [1] (setting [8]) is 280 ± 40 nM. Further, in series [2], the “ΔTtran, hTel quadruplex DNA” value worked out at 4.6 °C and the “Ttran, hTel quadruplex DNA” value stood at 69.2 °C. Moreover, in series [3], the “ΔTtran, salmon testes duplex DNA” value was −0.4 °C and the “Ttran, salmon testes duplex DNA” value was found to be 86.2 °C. Moreover, the water-solubility entry in series [5] is given as “good water-solubility”. For the same molecule, in series [4], the IC50 came out at 140 ± 20 nM.
In turn, `CN(C)c1ccc2cc1CNC(=O)c1coc(n1)-c1coc(n1)-c1cccc(n1)-c1nc(co1)-c1nc(co1)C(=O)NC2` [Compound 8, Pyridyl tetraoxazole macrocycle with a 4-(N,N-dimethylamino) group on the phenyl ring] returned an IC50 in series [1] (single determination) of 120 nM. In series [2], the “ΔTtran, hTel quadruplex DNA” value stood at 20.5 °C and the “Ttran, hTel quadruplex DNA” value stood at 85.1 °C. In addition, in series [3], the “ΔTtran, salmon testes duplex DNA” value was −0.9 °C and the “Ttran, salmon testes duplex DNA” value stood at 85.7 °C. Moreover, the “destabilizing effect on ST duplex DNA (thermal stability)” value in series [3] (size of the decrease in Ttran) is < 1 °C. In series [5], the water-solubility result is reported as “significantly less water-soluble”. For the same molecule, the half-maximal inhibitory concentration (IC50) in series [4] was 30 nM.
In turn, `CN(C)Cc1cc2cc(c1)CNC(=O)c1coc(n1)-c1coc(n1)-c1cccc(n1)-c1nc(co1)-c1nc(co1)C(=O)NC2` [Compound 20, Pyridyl tetraoxazole macrocycle with a 5-(N,N-dimethylaminomethyl) group on the phenyl ring] displayed an IC50 in series [1] (setting [8]) of 7000 ± 4200 nM. For the same molecule, in series [2], the “ΔTtran, hTel quadruplex DNA” value is 0.1 °C and the “Ttran, hTel quadruplex DNA” value was determined as 64.7 °C. Also, in series [3], the “ΔTtran, salmon testes duplex DNA” value was −0.4 °C and the “Ttran, salmon testes duplex DNA” value worked out at 86.2 °C. Besides, in series [4], the IC50 worked out at 5500 ± 700 nM.
`CN(C)CCCc1cc2cc(c1)CNC(=O)c1coc(n1)-c1coc(n1)-c1cccc(n1)-c1nc(co1)-c1nc(co1)C(=O)NC2` [Compound 22, Pyridyl tetraoxazole macrocycle with a 5-[3-(N,N-dimethylamino)propyl] group on the phenyl ring] registered an IC50 in series [1] (setting [8]) of 500 ± 100 nM. In series [2], the “ΔTtran, hTel quadruplex DNA” value came to 28.6 °C and the “Ttran, hTel quadruplex DNA” value is 93.2 °C. In addition, in series [3], the “ΔTtran, salmon testes duplex DNA” value is −0.4 °C and the “Ttran, salmon testes duplex DNA” value came out at 86.2 °C. In addition, the IC50 in series [4] came to 220 ± 130 nM.
As to `NCCc1cc2cc(c1)CNC(=O)c1coc(n1)-c1coc(n1)-c1cccc(n1)-c1nc(co1)-c1nc(co1)C(=O)NC2` [Compound 1], the IC50 in series [6] was 90 to 180 nM; in series [7] it was 30 to 40 nM.
The molecule `CN(C)CCc1ccc2cc1CNC(=O)c1coc(n1)-c1coc(n1)-c1cccc(n1)-c1nc(co1)-c1nc(co1)C(=O)NC2` [Compound 11, Pyridyl tetraoxazole macrocycle with a 4-[2-(N,N-dimethylamino)ethyl] group on the phenyl ring] yielded an IC50 in series [1] (setting [8]) of 500 ± 400 nM. In addition, in series [2], the “ΔTtran, hTel quadruplex DNA” value stood at 24.6 °C and the “Ttran, hTel quadruplex DNA” value was 89.2 °C. In addition, in series [3], the “ΔTtran, salmon testes duplex DNA” value is −0.4 °C and the “Ttran, salmon testes duplex DNA” value is 86.2 °C. Besides, in series [4], the IC50 was determined as 70 ± 70 nM.
Take `CN(C)CCCc1ccc2cc1CNC(=O)c1coc(n1)-c1coc(n1)-c1cccc(n1)-c1nc(co1)-c1nc(co1)C(=O)NC2` [Compound 12, Pyridyl tetraoxazole macrocycle with a 4-[3-(N,N-dimethylamino)propyl] group on the phenyl ring]: in series [1] (setting [8]), the IC50 turned out to be 400 nM. Also, in series [2], the “ΔTtran, hTel quadruplex DNA” value is 7.1 °C and the “Ttran, hTel quadruplex DNA” value worked out at 71.7 °C. In addition, in series [3], the “ΔTtran, salmon testes duplex DNA” value is −0.4 °C and the “Ttran, salmon testes duplex DNA” value was 86.2 °C. Moreover, the half-inhibitory concentration (IC50) in series [4] was 250 ± 70 nM.
For the molecule `CN(C)c1cc2cc(c1)CNC(=O)c1coc(n1)-c1coc(n1)-c1cccc(n1)-c1nc(co1)-c1nc(co1)C(=O)NC2` [Compound 19, Pyridyl tetraoxazole macrocycle with a 5-N,N-dimethylamino group on the phenyl ring], the IC50 in series [1] (setting [8]) stood at 60 ± 10 nM. Further, in series [2], the “ΔTtran, hTel quadruplex DNA” value worked out at 15.5 °C and the “Ttran, hTel quadruplex DNA” value came out at 80.1 °C. Also, in series [3], the “ΔTtran, salmon testes duplex DNA” value was −0.5 °C and the “Ttran, salmon testes duplex DNA” value was determined as 86.1 °C. Also, the water-solubility result in series [5] is on record as “significantly less water-soluble”. Also, the half-inhibitory concentration (IC50) in series [4] stood at 30 nM.

The values above are taken from publication PMC3949622, “Macrocyclic Pyridyl Polyoxazoles: Structure-Activity Studies of the Aminoalkyl Side-Chain on G-Quadruplex Stabilization and Cytotoxic Activity” (Molecules, 2013).
